“And” between values parts separate entries of the source, which are not always exact repeats. Equal values may be shown once.
Test system: patients with dry eye disease
Assay: Single application to eyelids of patients with dry eye disease (Expt 1)
Format: in vivo, human
Experimental: In the first experiment in which only a single application was tested, 60 subjects were randomly assigned using online software (http://www.graphpad.com/quickcalcs/index.cfm). One group received the vehicle solution (distilled water) (N = 30), and the second group received the TRPM8 agonist C3 dissolved in 2 mg/mL in distilled water (N = 30). Test solutions were kept at room temperature and topically applied to the eyelid skin and margins using an absorbent cotton gauze square (0.4 g rectangle (50 mm × 60 mm), CS-being, Daisan Cotton, Japan). A loading volume of 0.5 mL of solution was used to wet the cotton and the square wiped twice across the closed eyelids (Fig. 5c). The off-loaded volume from the gauze was estimated by weighing the square before and after wiping and found to be 6.5 mg or 6.5 μL. For the C3 solution this is equivalent to 13 μg of C3 for both eyes. This method of delivery targets the edges of the closed eyelids and utilizes the eyelashes as a wick to distribute the solution to the mucocutaneous junctions, conjunctiva, and precorneal film. The lid wiper mechanism of the blink further evenly distributes the solution on to the ocular surface. By using this wiping method, bolus delivery of an eye drop to the corneal surface is avoided.
Subsequently, cooling sensation (every 5 min), TBUT (every 10 min), basal tear secretion (every 20 min), and keratoepitheliopathy (KEP) score (every 30 min) were evaluated for 1 h. In addition, a questionnaire asking the severity of dry eye was used to evaluate the changes in dry eye symptom before and 1 h after application of topical agents. To avoid the effect of topical anesthesia on patient’s sensation, changes in cooling sensation and symptoms of dry eye were evaluated in the right eye, and the remaining examinations including the basal tear secretion measured by Schirmer score with application of topical 0.5% proparacine were performed on the left eye. All examinations were performed by a single masked investigator (K.C.Y) who was not informed of the results of the randomization. All the experiments and the answering the questionnaire were performed in a separate room so that the subjects would not compare the difference of the medications. The room temperature of the study was maintained at 25 °C. Cooling sensation was recorded by subjects using VAS symptom intensity scores on a scale of 0 (no symptom) to 10 (maximum intensity). The severity of dry eye symptoms was graded on a numerical score of 0 to 4 as follows; 0, no symptoms; 1, mild symptoms; 2, moderate symptoms; 3, severe symptoms; and 4, very severe symptoms. TBUT and basal tear secretion (Schirmer score with application of topical 0.5% proparacaine) were measured as previously described. To assess the corneal epithelial damage, the cornea was stained with 1% Fluorescein dye and the severity of KEP was scored by multiplying the area score (0–3) by density score (0–3) of staining.

`CCCCCCCCCP(=O)(C(C)C)C(C)C` [C3, 1-diisopropylphosphorylnonane] was tested, and the “duration of increase in tear secretion” value (2 mg/mL single application) was 60 min, the “ocular pain or irritation” value (2 mg/mL single application) was “None of patients reported” and the basal tear secretion (2 mg/mL single application, 20, 40 and 60 min) was “significantly increased”. The TBUT (2 mg/mL single application, 30 min and 40 min, above baseline) was “significantly elevated”, the “dry eye symptom score” value (2 mg/mL single application, 1 h, compared to baseline) was “improved significantly” and the “duration of ocular cooling” value (2 mg/mL single application, n = 30) was 46 min and 46 ± 2 min. For the same molecule, the KEP score (2 mg/mL single application, versus vehicle) was “No differences”.

Reference: paper PMC5485613, “A novel TRPM8 agonist relieves dry eye discomfort” (BMC Ophthalmology, 2017)
